Measurements reported in patent publication US20110319392A1, “Thiazole Sulfonamide And Oxazole Sulfonamide Kinase Inhibitors” (priority 2009, published 2011).
pIC50: −log10 of the molar value.

How the values were obtained:
[1] = test system: HT-29 tumor cells; experiment: Cell growth inhibition assay (CellTiter-Glo), HT-29; assay type: cell-based, Human; conditions: Homo sapiens
Summary of the method: (§1)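 Cells seeded at 500/well (HN5 and HT-29 in high-glucose DMEM/10% FBS; A375P F11s in RPMI/10% FBS with pyruvate; SK-MEL-3 in McCoy's 5A/15% FBS), then exposed next day to 1:3 serial compound dilutions (0.2% DMSO) for 3 days at 37° C. CellTiter-Glo luminescence measured ATP; IC50 derived by 4-parameter fit.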

[2] = test system: A375P F11s tumor cells; experiment: Cell growth inhibition assay (CellTiter-Glo), A375P F11s; assay type: cell-based, Human; conditions: Homo sapiens
Summary of the method: as §1

[3] = test system: Colo205 tumor cells; experiment: Cell growth inhibition assay (CellTiter-Glo), Colo205; assay type: cell-based, Human; conditions: 3 days incubation
Summary of the method: (§2)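 Readout was CellTiter-Glo luminescence (total ATP, surrogate for cell number) after 3-day exposure at 37° C, 5% CO2 to 1:3 serial compound dilutions in 0.2% final DMSO. Seeding was 500 cells/well; IC50 derived by 4-parameter fit relative to vehicle-treated wells.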

[4] = test system: BT474 tumor cells; experiment: Cell growth inhibition assay (CellTiter-Glo), BT474; assay type: cell-based, Human; conditions: 3 days incubation
[5] = test system: HN5 tumor cells; experiment: Cell growth inhibition assay (CellTiter-Glo), HN5; assay type: cell-based, Human; conditions: Homo sapiens, 72 h; 3 days incubation
Summary of the method: as §1

[6] = test system: SK-MEL-3 tumor cells; experiment: Cell growth inhibition assay (CellTiter-Glo), SK-MEL-3; assay type: cell-based, Human; conditions: Homo sapiens, SK-MEL3
Summary of the method: as §1

[7] = target: B-Raf (Homo sapiens, UniProt P15056); experiment: B-Raf Accelerated MEK ATPase assay (BRAMA), Method A or B; assay type: biochemical
Summary of the method: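 ADP production, initiated by catalytic activated Raf with unphosphorylated MEK, is followed by NADH oxidation through a PK/LDH coupled system. Method B differs from the kinetic Method A by a single end-point read and 150 nM final MEK.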

[8] = test system: SK-MEL-28 tumor cells; experiment: Cell growth inhibition assay (CellTiter-Glo), SK-MEL-28; assay type: cell-based, Human; conditions: 3 days incubation
Summary of the method: as §2

[9] = Method B: final MEK 150 nM, single end point read

Sequence of B-Raf (P15056 whole entry): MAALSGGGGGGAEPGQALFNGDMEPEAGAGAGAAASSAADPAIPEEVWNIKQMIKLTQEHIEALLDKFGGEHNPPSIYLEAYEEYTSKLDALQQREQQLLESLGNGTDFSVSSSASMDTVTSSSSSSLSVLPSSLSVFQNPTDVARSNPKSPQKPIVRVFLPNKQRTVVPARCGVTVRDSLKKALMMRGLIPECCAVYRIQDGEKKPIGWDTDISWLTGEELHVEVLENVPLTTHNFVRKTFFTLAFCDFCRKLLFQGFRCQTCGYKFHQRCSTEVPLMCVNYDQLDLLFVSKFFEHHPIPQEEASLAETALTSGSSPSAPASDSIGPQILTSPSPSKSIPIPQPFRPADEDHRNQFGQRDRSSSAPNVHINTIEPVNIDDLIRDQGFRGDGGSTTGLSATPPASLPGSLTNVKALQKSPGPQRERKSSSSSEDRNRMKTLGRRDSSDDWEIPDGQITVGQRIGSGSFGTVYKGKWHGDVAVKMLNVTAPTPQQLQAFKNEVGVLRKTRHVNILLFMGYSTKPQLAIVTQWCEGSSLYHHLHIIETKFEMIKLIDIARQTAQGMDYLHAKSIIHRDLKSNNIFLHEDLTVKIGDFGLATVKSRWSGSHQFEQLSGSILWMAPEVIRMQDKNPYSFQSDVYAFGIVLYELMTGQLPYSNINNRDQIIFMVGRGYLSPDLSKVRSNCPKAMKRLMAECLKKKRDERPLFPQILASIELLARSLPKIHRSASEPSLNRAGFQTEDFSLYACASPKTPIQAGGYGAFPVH

| Structure (SMILES) | pIC50 [1] | pIC50 [2] | pIC50 ([3]; Homo sapiens, COLO 205, 72 h) | pIC50 ([4]; Homo sapiens, BT-474, 72 h) | pIC50 [5] | pIC50 [6] | pIC50 [7, 9] | pIC50 ([8]; Homo sapiens, SK-MEL-28, 72 h) | pIC50 [3] | pIC50 [4] | pIC50 ([7]; Method A) | pIC50 [8] |
| --- | --- | --- | --- | --- | --- | --- | --- | --- | --- | --- | --- | --- |
| Cc1nc(Cl)sc1S(=O)(=O)Nc1cccc(-c2nc(C(C)C)sc2-c2ccnc(Nc3ccc(N4CCOCC4)nc3)n2)c1 [Example 42] | 6.00 to 7.00 | 6.00 to 7.00 | > 7.00 | < 6.00 | > 7.00 | > 7.00 | > 7.00 | > 7.00 | – | – | – | – |
| CC(C)c1nc(-c2cccc(NS(=O)(=O)c3c(F)cccc3F)n2)c(-c2ccnc(Nc3ccc(N4CCOCC4)nc3)n2)s1 [Example 44] | 6.00 to 7.00 | 6.00 to 7.00 | > 7.00 | < 6.00 | < 6.00 | 6.00 to 7.00 | > 7.00 | > 7.00 | – | – | – | – |
| CC(C)c1nc(-c2cncc(NS(=O)(=O)c3c(F)cccc3F)c2)c(-c2ccnc(Nc3ccc(N4CCOCC4)nc3)n2)s1 [Example 47] | 6.00 to 7.00 | > 7.00 | > 7.00 | < 6.00 | < 6.00 | > 7.00 | > 7.00 | > 7.00 | – | – | – | – |
| COc1ccc(S(=O)(=O)Nc2cccc(-c3nc(C(C)C)sc3-c3ccnc(Nc4ccc(N5CCOCC5)nc4)n3)c2)cn1 [Example 49] | > 7.00 | > 7.00 | > 7.00 | < 6.00 | < 6.00 | > 7.00 | > 7.00 | > 7.00 | – | – | – | – |
| CC(C)c1nc(-c2cccc(NS(=O)(=O)c3cccs3)c2)c(-c2ccnc(Nc3ccc(N4CCOCC4)nc3)n2)s1 [Example 51] | > 7.00 | > 7.00 | > 7.00 | < 6.00 | 6.00 to 7.00 | > 7.00 | > 7.00 | > 7.00 | – | – | – | – |
| CC(C)c1nc(-c2cccc(NS(=O)(=O)c3cccnc3)c2)c(-c2ccnc(Nc3ccc(N4CCOCC4)nc3)n2)s1 [Example 52] | > 7.00 | > 7.00 | > 7.00 | < 6.00 | 6.00 to 7.00 | > 7.00 | > 7.00 | > 7.00 | – | – | – | – |
| CC(C)c1nc(-c2cccc(NS(=O)(=O)c3ccco3)c2)c(-c2ccnc(Nc3ccc(N4CCOCC4)nc3)n2)s1 [Example 53] | > 7.00 | > 7.00 | > 7.00 | < 6.00 | > 7.00 | > 7.00 | > 7.00 | > 7.00 | – | – | – | – |
| CC(=O)N1CCN(c2ccc(Nc3nccc(-c4oc(C(C)C)nc4-c4cccc(NS(=O)(=O)c5c(F)cccc5F)c4)n3)cn2)CC1 [Example 56] | 6.00 to 7.00 | 6.00 to 7.00 | > 7.00 | < 6.00 | < 6.00 | > 7.00 | > 7.00 | > 7.00 | – | – | – | – |
| CC(C)c1nc(-c2cccc(NS(=O)(=O)c3c(F)cccc3F)c2)c(-c2ccnc(Nc3ccc(N4CCOCC4)c(F)c3)n2)o1 [Example 57] | 6.00 to 7.00 | 6.00 to 7.00 | > 7.00 | < 6.00 | 6.00 to 7.00 | 6.00 to 7.00 | > 7.00 | > 7.00 | – | – | – | – |
| Nc1nc(-c2cccc(NS(=O)(=O)c3c(F)cccc3F)c2)c(-c2ccnc(Nc3ccc(N4CCOCC4)nc3)n2)s1 [Example 62] | 6.00 to 7.00 | > 7.00 | > 7.00 | < 6.00 | 6.00 to 7.00 | > 7.00 | > 7.00 | > 7.00 | – | – | – | – |
| CCNc1nc(-c2cccc(NS(=O)(=O)c3ccccc3)c2)c(-c2ccnc(Nc3ccc(OCCN4CCCC4)c(F)c3)n2)s1 [Example 65] | 6.00 to 7.00 | 6.00 to 7.00 | – | – | 6.00 to 7.00 | 6.00 to 7.00 | – | – | 6.00 to 7.00 | < 6.00 | > 7.00 | 6.00 to 7.00 |
